Data on nine compounds can be found in patent US4721775A, “Effective peptides related to the luteinizing hormone releasing hormone from L-amino acids” (Board of Regents, The University of Texas System, priority 1985, dated 1988).

The conditions of experiment [1]: relative to LHRH; cited from earlier work.
In experiment [2] the test system is release of LH. Put plainly: Release of LH in rats after sc injection. To be noted: for release of LH compared with LHRH: sc injection, dose and time as stated in the source; for release of LH: in our assays. Format: in vivo. An excerpt: (§1) The data on the release of LH and FSH in rats by modifications of LHRH with one structural change are in Table II.
(§2) Exclusive of the salmon-LHRH, only one of the six decapeptides with two structural changes had significant activity.

The test system of experiment [3] is release of FSH. To be noted: at 1000 and 5000 ng; cited from earlier work.
In experiment [4] the test system is release of FSH. Put plainly: Release of FSH in rats after sc injection. The format is in vivo. The settings on record: for release of FSH: in our assays.
Description: as §1, §2

The test system of experiment [5] is release of LH. To be noted: at 1000 and 5000 ng; cited from earlier work.
The test system of experiment [6] is rat anterior pituitary cells in primary culture. The settings on record: cited from earlier work; for activity (potency) to release LH relative to P/O LHRH: in vitro, rat pituitary cells, Sherwood et al. (a), Miyamoto et al. (b).
Another experiment has as its system rat pituitary cells. To be noted: cited from earlier work; for activity to release FSH relative to P/O LHRH: in vitro, rat pituitary cells, Miyamoto et al. (b).
In experiment [7] the test system is release of FSH. To be noted: comparison with purified hypothalamic fractions; cited from earlier work.
The conditions of experiment [8]: relative to LHRH; cited from earlier work. This is another data set of the same source.
Experiment [9] relates to release of FSH. Put plainly: Release of FSH in rats after sc injection. To be noted: dose and time as stated in the source. Format: in vivo.
The next experiment deals with ovulation. The settings on record: 250 ng; rats; cited from earlier work.
Setting [10] is: 15 min. after sc injection, 50 ng, LHRH = 100.
[11] abbreviates: 15 min. after sc injection, 100 ng, LHRH = 100.
Setting [12] is: 15 min. after sc injection, 100 ng, experiment marked *.
The mark [13] stands for this setting: 15 min. after sc injection, 100 ng, experiment marked *, LHRH* = 100.
The mark [14] stands for this setting: 15 min. after sc injection, 1000 ng, LHRH = 100.
[15] abbreviates: 15 min. after sc injection, 1000 ng, experiment marked *.
[16] abbreviates: 30 min. after sc injection, 50 ng, LHRH = 100.
Where [17] appears, read: 30 min. after sc injection, 100 ng, LHRH = 100.
Where [18] appears, read: 30 min. after sc injection, 1000 ng, LHRH = 100.
The mark [19] stands for this setting: 60 min. after sc injection, 300 ng, LHRH = 100.
[20] abbreviates: 60 min. after sc injection, 3000 ng, LHRH = 100.
Where [21] appears, read: release 15 min. after sc injection, dosage of peptide 50 ng.
Setting [22] is: release 15 min. after sc injection, dosage of peptide 100 ng.
Setting [23] is: release 15 min. after sc injection, dosage of peptide 1000 ng.
[24] abbreviates: release 30 min. after sc injection, dosage of peptide 50 ng.
Where [25] appears, read: release 30 min. after sc injection, dosage of peptide 100 ng.
Where [26] appears, read: release 60 min. after sc injection, dosage of peptide 300 ng.
Where [27] appears, read: release 60 min. after sc injection, dosage of peptide 3000 ng.
The mark [28] stands for this setting: release 30 min. after sc injection, dosage of peptide 1000 ng.
Where [29] appears, read: fraction of the activities of LHRH or words.

Several values for one entry are separate records, joined by “and”; a condition that tells them apart may be missing. Equal entries are not always repeated. Entries after “also recorded” stand apart in the source; their conditions may differ. Non-standard residues stand in square brackets, D forms with d. Residues, ends and D or L forms follow the SMILES beside them. pGlu = O=C1CC[C@@H](C(=O)O)N1

For the compound “[Ala^9 ]-LHRH (QHWSYGLRAG; Gonadoliberin-1; UniProt P01148 24-33, looked up, variant P9A) [literature agonist analog of LHRH]”, in experiment [1], the “agonist activity in vitro, as active as LHRH” value (“agonist activity in vitro” for short) is recorded as 65%.
With [3(2-Nal)^3 ]-LHRH, the “agonist activity in vitro” value in experiment [1] is 200%.
`CC(C)C[C@H](NC(=O)CNC(=O)[C@H](Cc1ccc(O)cc1)NC(=O)[C@H](CO)NC(=O)[C@H](Cc1c[nH]c2ccccc12)NC(=O)[C@H](Cc1c[nH]cn1)NC(=O)[C@@H]1CCC(=O)N1)C(=O)N[C@@H](CC(C)C)C(=O)N1CCC[C@H]1C(=O)NCC(N)=O` [[Leu^8]--LHRH, p-Glu His Trp Ser Tyr Gly Leu Leu Pro Gly-NH2, reference compound]: the “release of LH compared with LHRH” value in the experiment on release of LH [2] was “relatively low activities”. Moreover, the “activity for FSH release” value in the experiment with release of FSH [3] was “Inactive”. Further, in the experiment on release of FSH [4] (sc injection, dose and time as stated in the source), the “release of FSH compared with LHRH” value is on record as “relatively low activities”. Further, the “activity for LH release” value with release of LH [5] is “Inactive”.
Regarding `CC(C)C[C@H](NC(=O)CNC(=O)[C@H](Cc1ccc(O)cc1)NC(=O)[C@H](CO)NC(=O)[C@H](Cc1c[nH]c2ccccc12)NC(=O)[C@H](Cc1c[nH]cn1)NC(=O)[C@@H]1CCC(=O)N1)C(=O)N[C@@H](CCCNC(=N)N)C(=O)N1CCC[C@H]1C(=O)NCC(N)=O` [LHRH, pGlu--His--Trp--Ser--Tyr--Gly--Leu--Arg--Pro--Gly--NH2, reference compound], the LH % change with release of LH [2] (setting [10]) turned out to be 100%; with release of LH [2] (setting [11]), 100%; with release of LH [2] (setting [13]) it was 100%; with release of LH [2] (setting [14]) it was 100%; in the experiment with release of LH [2] (15 min. after sc injection, 1000 ng, experiment marked *, LHRH* = 100) it was 100%; in the experiment with release of LH [2] (setting [16]) it was 100%. For the same compound, the LH % change with release of LH [2] (setting [17]), in the experiment on release of LH [2] (setting [18]), with release of LH [2] (setting [19]) and in the experiment with release of LH [2] (setting [20]) was 100% throughout. In addition, the LH in the experiment on release of LH [2] (setting [12]) was found to be 21 ng/mL; in the experiment with release of LH [2] (setting [15]) it was 39 ng/mL; in the experiment on release of LH [2] (setting [21]), 16 ng/mL; in the experiment on release of LH [2] (setting [22]), 24 ng/mL; in the experiment on release of LH [2] (setting [23]), 57 ng/mL; in the experiment with release of LH [2] (setting [24]), 18 ng/mL. Moreover, the LH was 11 ng/mL with release of LH [2] (setting [25]); 11 ng/mL and 17 ng/mL in the experiment with release of LH [2] (setting [26]); 82 ng/mL and 113 ng/mL with release of LH [2] (setting [27]). In addition, the “activity (potency) to release LH relative to P/O LHRH” value in [6] is reported as 100%. In addition, the “activity to release FSH relative to P/O LHRH” value in the experiment with rat pituitary cells is recorded as 100%. For the same compound, the FSH released result with release of FSH [7] is “ca. 18,000 ng/ml”. Also, the FSH % change with release of FSH [4] (setting [10]), with release of FSH [4] (setting [11]), in the experiment with release of FSH [4] (setting [13]), with release of FSH [4] (setting [14]), with release of FSH [4] (setting [16]) and in the experiment on release of FSH [4] (setting [17]) was 100% throughout. For the same compound, the FSH % change with release of FSH [4] (setting [18]), with release of FSH [4] (setting [19]) and in the experiment on release of FSH [4] (setting [20]) was 100% in each case. For the same compound, the FSH came out at 455 ng/mL in the experiment on release of FSH [4] (setting [12]); 576 ng/mL in the experiment with release of FSH [4] (setting [15]); 550 ng/mL with release of FSH [4] (setting [21]); 465 ng/mL in the experiment on release of FSH [4] (setting [22]); 483 ng/mL in the experiment with release of FSH [4] (setting [23]); 515 ng/mL in the experiment on release of FSH [4] (setting [24]). Further, the FSH in the experiment on release of FSH [4] (setting [25]) is 494 ng/mL and 434 ng/mL; in the experiment on release of FSH [4] (setting [28]) it was 691 ng/mL and 1010 ng/mL; in the experiment with release of FSH [4] (setting [26]), 596 ng/mL and 554 ng/mL; in the experiment with release of FSH [4] (setting [27]), 1173 ng/mL and 1501 ng/mL.
For “[Phe^5 ]-LHRH (QHWSFGLRPG; Gonadoliberin-1; UniProt P01148 24-33, looked up, variant Y5F) [literature agonist analog of LHRH, reference compound]”, the “agonist activity in vivo” value in experiment [8] was 64%.
For `N=C(N)NCCC[C@H](NC(=O)[C@H](Cc1c[nH]c2ccccc12)NC(=O)CNC(=O)[C@H](Cc1ccc(O)cc1)NC(=O)[C@H](CO)NC(=O)[C@H](Cc1c[nH]c2ccccc12)NC(=O)[C@H](Cc1c[nH]cn1)NC(=O)[C@@H]1CCC(=O)N1)C(=O)N1CCC[C@H]1C(=O)NCC(N)=O` [[Trp^7]--LHRH, p-Glu His Trp Ser Tyr Gly Trp Arg Pro Gly-NH2], the LH was 14.5 ng/mL with release of LH [2] (setting [26]); 115 ± 19 ng/mL and 115 ng/mL in the experiment on release of LH [2] (setting [27]). Moreover, in the experiment with release of LH [2], the “release of LH compared with LHRH” value is “as active as LHRH at two dose levels; also recorded: equivalent to LHRH in the release of both LH and FSH”. Besides, the FSH turned out to be 543 ng/mL with release of FSH [4] (setting [26]) and 1259 ng/mL in the experiment with release of FSH [4] (setting [27]). The “agonist activity in vivo” value in experiment [8] is 80%. The “release of FSH compared with LHRH” value in the experiment with release of FSH [9] is “as active as LHRH; also recorded: equivalent to LHRH in the release of both LH and FSH”.
In the case of “[N-Ac-D-2-Nal^1, D-pClPhe^2, D-3-Pal^3, D-Arg^6, Trp^7, D-Ala10 ]-LHRH”, the antiovulatory activity result in the experiment on ovulation is on record as “ca. 90%”.
[N-MeLeu^7 ]-LHRH: the “agonist activity in vitro” value in experiment [1] is listed as 100%.
Regarding `NC(=O)CNC(=O)[C@@H]1CCCN1C(=O)[C@H](Cc1ccc(O)cc1)NC(=O)[C@H](Cc1c[nH]c2ccccc12)NC(=O)CNC(=O)[C@H](Cc1c[nH]cn1)NC(=O)[C@H](CO)NC(=O)[C@H](Cc1c[nH]c2ccccc12)NC(=O)[C@H](Cc1c[nH]cn1)NC(=O)[C@@H]1CCC(=O)N1` [[His^5 Trp^7 Tyr^8] (Chicken II), pGlu--His--Trp--Ser--His--Gly--Trp--Tyr--Pro--Gly--NH2, reference compound] ([pGlu]HWSHGWYPG-NH2), the LH % change with release of LH [2] (setting [17]) is listed as 18%; in the experiment on release of LH [2] (setting [18]), 39%; in the experiment with release of LH [2] (setting [19]), 32%; with release of LH [2] (setting [20]) it was 10%. The entries for the “release of LH” value in the experiment on release of LH [2] (dose level 100 ng) and with release of LH [2] (dose level 1000 ng) were 18% and 30%, respectively. Further, the LH in the experiment with release of LH [2] (setting [25]) is 2 ng/mL; with release of LH [2] (setting [28]), 14 ng/mL; with release of LH [2] (setting [26]), 3.5 ng/mL; in the experiment with release of LH [2] (setting [27]), 8.4 ng/mL. The “activities to release LH compared with LHRH (Table I)” value in [6] (setting [29]) is listed as “about 1/3”. The “activity (potency) to release LH relative to P/O LHRH” value in experiment [6] is 32%. Besides, the “activities to release FSH compared with LHRH (Table I)” value in the experiment with rat pituitary cells (setting [29]) is reported as “about 1/3”. Moreover, the “activity to release FSH relative to P/O LHRH” value with rat pituitary cells is 41%. Moreover, the FSH % change with release of FSH [4] (setting [17]) is 62%; in the experiment on release of FSH [4] (setting [19]), 58%; in the experiment with release of FSH [4] (setting [20]), 55%. In addition, the “release of FSH” value worked out at 62% in the experiment with release of FSH [4] (dose level 100 ng) and 86% in the experiment with release of FSH [4] (dose level 1000 ng). The FSH in the experiment with release of FSH [4] (setting [25]) came to 305 ng/mL; with release of FSH [4] (setting [28]), 596 ng/mL; in the experiment with release of FSH [4] (setting [26]), 344 ng/mL; in the experiment with release of FSH [4] (setting [27]), 644 ng/mL.
